Assay results reported in patent publication US20040266826A1, “Thiophenylthiopyrane dioxides as mmp or tnf-alpha inhibitors” (priority 2001, published 2004).

Target: T1, human MMP-9 (Homo sapiens, UniProt P14780)
T1 construct: purchased Yagai, Japan
Assay: Inhibitory activity of human MMP-9 (commercial kit, degradation of FITC-labeled bovine type IV collagen)
Assay type: biochemical
Details: incubation 4 hours at 42° C.
Procedure: Inhibitory Activity of Human MMP-9
The inhibitory activity of test compounds against human MMP-9 were measured by using commercial kits (Yagai, Japan). Gelatinolytic activity was determined by monitoring the degradation of FITC-labeled bovine type IV collagen after incubation for 4 hours at 42° C. The amount of degraded collagen was estimated by measuring the fluorescence intensity at 495 nm (excitation) and 520 nm (emission).
Inhibitory activity of human MMP-9 as mentioned above.

T1 sequence (P14780 94-707): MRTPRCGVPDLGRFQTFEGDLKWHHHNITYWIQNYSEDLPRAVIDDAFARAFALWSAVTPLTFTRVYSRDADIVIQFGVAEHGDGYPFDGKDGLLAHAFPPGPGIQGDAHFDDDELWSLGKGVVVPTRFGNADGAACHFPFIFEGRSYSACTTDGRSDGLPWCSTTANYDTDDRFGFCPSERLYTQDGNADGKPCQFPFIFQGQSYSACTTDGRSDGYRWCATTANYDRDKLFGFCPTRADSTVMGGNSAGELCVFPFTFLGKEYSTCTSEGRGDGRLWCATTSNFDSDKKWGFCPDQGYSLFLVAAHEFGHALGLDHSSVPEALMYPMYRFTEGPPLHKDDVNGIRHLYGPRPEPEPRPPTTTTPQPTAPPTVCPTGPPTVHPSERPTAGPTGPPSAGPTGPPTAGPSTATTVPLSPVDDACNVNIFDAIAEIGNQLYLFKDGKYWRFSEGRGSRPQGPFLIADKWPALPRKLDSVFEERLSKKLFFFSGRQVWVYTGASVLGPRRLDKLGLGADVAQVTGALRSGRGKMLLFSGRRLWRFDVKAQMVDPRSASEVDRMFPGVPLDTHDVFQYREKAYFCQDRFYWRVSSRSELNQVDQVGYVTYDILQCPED

Going from `O=C(O)C[C@]1(c2ccc(-c3ccc(-c4cnco4)cc3)s2)CCCCS1(=O)=O` [Example 3, [(2S)-2-[5-[4-(5-Oxazolyl)phenyl]thiophen-2-yl]-1,1-dioxo-3,4,5,6-tetrahydro-2H-thiopyran-2-yl]acetic acid] to `O=C(O)C[C@]1(c2ccc(-c3ccc(-c4ccsc4)cc3)s2)CCCCS1(=O)=O` [Example 35, ((2S)-1,1-Dioxo-2-{5-[4-(thiophen-3-yl)phenyl]-thiophen-2-yl}-3,4,5,6-tetrahydro-2H-thiopyran-2-yl)acetic acid], the IC50 falls from 16 nM to 2.77 nM (5.8-fold).

Compared with `COc1ccc2sc(-c3ccc([C@@]4(CC(=O)O)CCCCS4(=O)=O)s3)cc2c1` [Example 51, {(2S)-2-[5-(5-Methoxybenzothiophen-2-yl)thiophen-2-yl]-1,1-dioxo-3,4,5,6-tetrahydro-2H-thiopyran-2-yl} acetic acid], `O=C(O)C[C@]1(c2ccc(-c3cc4ccc(F)cc4s3)s2)CCCCS1(=O)=O` [Example 97, {(2S)-1,1-Dioxo-2-[5-(6-fluorobenzothiophen-2-yl)thiophen-2-yl]-3,4,5,6-tetrahydro-2H-thiopyran-2-yl}acetic acid] is 3.3-fold lower in IC50: 4.56 nM for the first, 1.37 nM for the second. The second is the more potent here.

Work on `O=C(O)C[C@]1(c2ccc(C#Cc3ccc(Cl)cc3)s2)CCCCS1(=O)=O` [Example 179, ((2S)-2-{5-[(4-Chlorophenyl)ethynyl]thiophen-2-yl)-1,1-dioxo-3,4,5,6-tetrahydro-2H-thiopyran-2-yl)acetic acid] yielded an IC50 of 7.17 nM.

System: not given
Assay: not given
Details: not given

First: O=C(O)C[C@]1(c2ccc(-c3ccc4cc(-c5cnco5)ccc4c3)s2)CCCCS1(=O)=O [Example 43, ((2S)-1,1-Dioxo-2-{5-[6-(oxazol-5-yl)naphthalen-2-yl]thiophen-2-yl}-3,4,5,6-tetrahydro-2H-thiopyran-2-yl)acetic acid]
Second: CCOc1ccc2cc(-c3ccc([C@@]4(CC(=O)O)CCCCS4(=O)=O)s3)ccc2c1 [Example 48, {(2S)-1,1-Dioxo-2-[5-(6-ethoxynaphthalen-2-yl)thiophen-2-yl]-3,4,5,6-tetrahydro-2H-thiopyran-2-yl} acetic acid]
The melting point of the first is higher: 260 to 265 °C for the first, 219 to 222 °C for the second.

First: Cc1ccc2sc(-c3ccc([C@@]4(CC(=O)O)CCCCS4(=O)=O)s3)cc2c1 [Example 50, {(2S)-2-[5-(5-Methylbenzothiophen-2-yl)thiophen-2-yl]-1,1-dioxo-3,4,5,6-tetrahydro-2H-thiopyran-2-yl} acetic acid]
Second: O=C(O)C[C@]1(c2ccc(-c3cc4cc(F)ccc4s3)s2)CCCCS1(=O)=O [Example 53, {(2S)-2-[5-(5-Fluorobenzothiophen-2-yl)thiophen-2-yl]-1,1-dioxo-3,4,5,6-tetrahydro-2H-thiopyran-2-yl} acetic acid]
The melting point of the first is lower: 209 to 213 °C for the first, 219 to 221 °C for the second.

Compared with `COc1ccc2sc(-c3ccc([C@@]4(CC(=O)O)CCCCS4(=O)=O)s3)cc2c1` [Example 51, {(2S)-2-[5-(5-Methoxybenzothiophen-2-yl)thiophen-2-yl]-1,1-dioxo-3,4,5,6-tetrahydro-2H-thiopyran-2-yl} acetic acid], `COc1ccc2cc(-c3ccc([C@@]4(CC(=O)O)CCCCS4(=O)=O)s3)sc2c1` [Example 52, {(2S)-2-[5-(6-Methoxybenzothiophen-2-yl)thiophen-2-yl]-1,1-dioxo-3,4,5,6-tetrahydro-2H-thiopyran-2-yl} acetic acid] is higher in melting point: 215 to 218 °C for the first, 232 to 235 °C for the second.

First: CNC(=O)c1ccc2cc(-c3ccc([C@@]4(CC(=O)O)CCCCS4(=O)=O)s3)ccc2c1 [Example 54, [(2S)-1,1-Dioxo-2-(5-{6-[methylcarbamoyl)naphthalen-2-yl}thiophen-2-yl)-3,4,5,6-tetrahydro-2H-thiopyran-2-yl]acetic acid]
Second: CC(C)Oc1ccc(-c2ccc([C@@]3(CC(=O)O)CCCCS3(=O)=O)s2)cc1 [Example 96, ((2S)-1,1-Dioxo-2-{5-[4-(1-methylethoxy)phenyl]-thiophen-2-yl}-3,4,5,6-tetrahydro-2H-thiopyran-2-yl) acetic acid]
The melting point of the first is higher: 230 to 232 °C for the first, 184 to 185 °C for the second.

First: CCCC#Cc1ccc([C@@]2(CC(=O)O)CCCCS2(=O)=O)s1 [Example 178, ((2S)-1,1-Dioxo-2-(5-[1-pentynyl]thiophen-2-yl}-3,4,5,6-tetrahydro-2H-thiopyran-2-yl)acetic acid]
Second: Cc1ccc(C#Cc2ccc([C@@]3(CC(=O)O)CCCCS3(=O)=O)s2)cc1 [Example 180, ((2S)-1,1-Dioxo-2-{5-[(4-methylphenyl)ethynyl]-thiophen-2-yl}-3,4,5,6-tetrahydro-2H-thiopyran-2-yl)acetic acid]
The melting point of the first is lower: 171 to 172 °C for the first, 172 to 173 °C for the second.

In the case of `O=C(O)C[C@]1(c2ccc(C#Cc3ccc(Cl)cc3)s2)CCCCS1(=O)=O` [Example 179, ((2S)-2-{5-[(4-Chlorophenyl)ethynyl]thiophen-2-yl)-1,1-dioxo-3,4,5,6-tetrahydro-2H-thiopyran-2-yl)acetic acid], the melting point is reported as 203 to 204 °C.
